What all share (type): in vivo
Data set [1] deals with Beet Armyworm (Spodoptera exigua, LAPHEG). As to the kind of experiment: Bioassays on Beet Armyworm (BAW), 128-well diet tray assay. To be noted: for mortality at 50 µg/cm2: 168 h, 50 μg/cm^2 on artificial diet, second instar larvae, 25° C., five to seven days, read-out: BAW % Control (or Mortality) rating; for pest or weed control at 50 µg/cm2: Beet Armyworm, Table ABC Biological Results, read-out: BAW (rating). Summed up: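 Second-instar larvae, one to five per well, were placed on artificial diet surface-treated with 50 μg/cm^2 compound in 90:10 acetone-water, eight wells per treatment. Trays were held 5–7 days at 25 °C, 14:10 light-dark. Percent mortality per well was averaged over eight wells.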

The test system of data set [2] is Cabbage Looper (Trichoplusia ni, TRIPNI). The data set is described as follows: Bioassays on Cabbage Looper (CL), 128-well diet tray assay. To be noted: for mortality at 50 µg/cm2: 168 h, 50 μg/cm^2 on artificial diet, second instar larvae, 25° C., five to seven days, read-out: CL % Control (or Mortality) rating; for pest or weed control at 50 µg/cm2: Cabbage Looper, Table ABC Biological Results, read-out: CL (rating). Summed up: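 Second-instar larvae (1–5 per well) placed on artificial diet surface-treated with 50 μg/cm^2 test molecule applied in 90:10 acetone-water and dried. Held at 25° C., 14:10 light-dark, for five to seven days. Percent mortality scored per well and averaged over eight wells.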

Data set [3] has as its system Yellow Fever Mosquito (Aedes aegypti, AEDSAE). The settings on record: for YFM % Control (or Mortality) rating: about 1 day-old larvae, 96-well plate, room temperature, 3 days; for YFM (rating): Yellow Fever Mosquito, Table ABC Biological Results. How it is done: Certain molecules disclosed in this document were tested against YFM using procedures described in the following paragraph. In the reporting of the results, the “GPA & YFM Rating Table” was used (See Table Section).
Master plates containing 400 μg of a molecule dissolved in 100 μL of dimethyl sulfoxide (DMSO) (equivalent to a 4000 ppm solution) are used. A master plate of assembled molecules contains 15 μL per well. To this plate, 135 μL of a 90:10 water/acetone mixture is added to each well. A robot (Biomek® NXP Laboratory Automation Workstation) is programmed to dispense 15 μL aspirations from the master plate into an empty 96-well shallow plate (“daughter” plate). There are 6 reps (“daughter” plates) created per master. The created “daughter” plates are then immediately infested with YFM larvae.
The day before plates are to be treated, mosquito eggs are placed in Millipore water containing liver powder to begin hatching (4 g into 400 mL). After the “daughter” plates are created using the robot, they are infested with 220 μL of the liver powder/larval mosquito mixture (about 1 day-old larvae). After plates are infested with mosquito larvae, a non-evaporative lid is used to cover the plate to reduce drying. Plates are held at room temperature for 3 days prior to grading. After 3 days, each well is observed and scored based on mortality. The results are indicated in the table entitled “Table ABC: Biological Results” (See Table Section).

As to `Nc1c(F)ccc(NC(=O)c2cc(NC(=O)[C@H]3[C@H](c4cc(Cl)c(Cl)c(Cl)c4)C3(Cl)Cl)ccc2Cl)c1F` [DP2, N-(3-amino-2,4-difluorophenyl)-2-chloro-5-((1R,3R)-2,2-dichloro-3-(3,4,5-trichlorophenyl)cyclopropane-1-carboxamido)benzamide], the mortality at 50 µg/cm2 in data set [1] and in data set [2] was 50 to 100% each time. In data set [3], the “YFM % Control (or Mortality) rating” value is “A (80-100)”.
For the compound `Nc1c(F)ccc(NC(=O)c2cc(NC(=O)[C@H]3[C@H](c4ccc(Cl)c(Cl)c4)C3(Cl)Cl)ccc2Cl)c1F` [DP3, N-(3-Amino-2,4-difluorophenyl)-2-chloro-5-((1R,3R)-2,2-dichloro-3-(3,4-dichlorophenyl)cyclopropane-1-carboxamido)benzamide], the mortality at 50 µg/cm2 in data set [1] and in data set [2] was 50 to 100% each time. Moreover, in data set [3], the “YFM % Control (or Mortality) rating” value is recorded as “A (80-100)”.
For the compound `Nc1c(F)ccc(NC(=O)c2cc(NC(=O)[C@H]3[C@H](c4ccc(F)c(Cl)c4)C3(Cl)Cl)ccc2Cl)c1F` [DP4, N-(3-Amino-2,4-difluorophenyl)-2-chloro-5-((1R,3R)-2,2-dichloro-3-(3-chloro-4-fluorophenyl)cyclopropane-1-carboxamido)benzamide], the mortality at 50 µg/cm2 in data set [1] and in data set [2] was 50 to 100% throughout. The “YFM % Control (or Mortality) rating” value in data set [3] was “A (80-100)”.
Regarding `Nc1c(F)ccc(NC(=O)c2cc(NC(=O)[C@H]3[C@H](c4ccc(F)c(C(F)(F)F)c4)C3(Cl)Cl)ccc2Cl)c1F` [DP5, N-(3-Amino-2,4-difluorophenyl)-2-chloro-5-((1R,3R)-2,2-dichloro-3-(4-fluoro-3-(trifluoromethyl)phenyl)cyclopropanecarboxamido)benzamide], the mortality at 50 µg/cm2 in data set [1] and in data set [2] was 50 to 100% throughout. In addition, the “YFM % Control (or Mortality) rating” value in data set [3] was “A (80-100)”.
As for `Nc1c(F)ccc(NC(=O)c2cc(NC(=O)[C@H]3[C@H](c4cc(F)cc(C(F)(F)F)c4)C3(Cl)Cl)ccc2Cl)c1F` [DP8, N-(3-Amino-2,4-difluorophenyl)-2-chloro-5-((1R,3R)-2,2-dichloro-3-(3-fluoro-5-(trifluoromethyl)phenyl)cyclopropane-1-carboxamido)benzamide], the mortality at 50 µg/cm2 in data set [1] and in data set [2] was 50 to 100% each time. The “YFM % Control (or Mortality) rating” value in data set [3] is “A (80-100)”.
Consider `O=C(CSCC(F)(F)F)Nc1c(F)ccc(NC(=O)c2cc(NC(=O)[C@H]3[C@H](c4ccc(F)c(C(F)(F)F)c4)C3(Cl)Cl)ccc2Cl)c1F` [F15, 2-chloro-5-((R,3R)-2,2-dichloro-3-(4-fluoro-3-(trifluoromethyl)phenyl)cyclopropane-1-carboxamido)-N-(2,4-difluoro-3-(2-((2,2,2-trifluoroethyl)thio)acetamido)phenyl)benzamide], for which the pest or weed control at 50 µg/cm2 in data set [1] and in data set [2] was 50 to 100% in each case. The “YFM (rating)” value in data set [3] is given as “A (80-100)”.
In the case of `CC(SC(F)(F)F)C(=O)Nc1c(F)ccc(NC(=O)c2cc(NC(=O)[C@H]3[C@H](c4ccc(F)c(C(F)(F)F)c4)C3(Cl)Cl)ccc2Cl)c1F` (stereo partly drawn) [F16, 2-Chloro-5-((1R,3R)-2,2-dichloro-3-(4-fluoro-3-(trifluoromethyl)phenyl)cyclopropane-1-carboxamido)-N-(2,4-difluoro-3-(2-((trifluoromethyl)thio)propanamido)phenyl)benzamide], the pest or weed control at 50 µg/cm2 in data set [1] and in data set [2] was 50 to 100% throughout. Moreover, in data set [3], the “YFM (rating)” value was “A (80-100)”.
In the case of `O=C(CSC(F)(F)F)Nc1c(F)ccc(NC(=O)c2cc(NC(=O)[C@H]3[C@H](c4ccc(F)c(C(F)(F)F)c4)C3(Cl)Cl)ccc2Cl)c1F` [F17, 2-Chloro-5-((1R,3R)-2,2-dichloro-3-(4-fluoro-3-(trifluoromethyl)phenyl)cyclopropane-1-carboxamido)-N-(2,4-difluoro-3-(2-((trifluoromethyl)thio)acetamido)phenyl)benzamide], the pest or weed control at 50 µg/cm2 in data set [1] and in data set [2] was 50 to 100% throughout. For the same compound, the “YFM (rating)” value in data set [3] is on record as “A (80-100)”.
In the case of `CCSC(C)C(=O)Nc1c(F)ccc(NC(=O)c2cc(NC(=O)[C@H]3[C@H](c4ccc(F)c(C(F)(F)F)c4)C3(Cl)Cl)ccc2Cl)c1F` (stereo partly drawn) [F18, 2-Chloro-5-((1R,3R)-2,2-dichloro-3-(4-fluoro-3-(trifluoromethyl)phenyl)cyclopropane-1-carboxamido)-N-(3-(2-(ethylthio)propanamido)-2,4-difluorophenyl)benzamide], the pest or weed control at 50 µg/cm2 in data set [1] and in data set [2] was 50 to 100% each time. Besides, the “YFM (rating)” value in data set [3] is “A (80-100)”.
Regarding `CCSCC(=O)Nc1c(F)ccc(NC(=O)c2cc(NC(=O)[C@H]3[C@H](c4ccc(F)c(C(F)(F)F)c4)C3(Cl)Cl)ccc2Cl)c1F` [F19, 2-Chloro-5-((1R,3R)-2,2-dichloro-3-(4-fluoro-3-(trifluoromethyl)phenyl)cyclopropane-1-carboxamido)-N-(3-(2-(ethylthio)acetamido)-2,4-difluorophenyl)benzamide], the pest or weed control at 50 µg/cm2 in data set [1] and in data set [2] was 50 to 100% in each case. Further, the “YFM (rating)” value in data set [3] is “A (80-100)”.
Take `O=C(CCSCCC(F)(F)F)Nc1c(F)ccc(NC(=O)c2cc(NC(=O)[C@H]3[C@H](c4ccc(F)c(C(F)(F)F)c4)C3(Cl)Cl)ccc2Cl)c1F` [F21, 2-Chloro-5-((1R,3R)-2,2-dichloro-3-(4-fluoro-3-(trifluoromethyl)phenyl)cyclopropane-1-carboxamido)-N-(2,4-difluoro-3-(3-((3,3,3-trifluoropropyl)thio)propanamido)phenyl)benzamide]: the pest or weed control at 50 µg/cm2 in data set [1] and in data set [2] was 50 to 100% in each case. Also, in data set [3], the “YFM (rating)” value was “A (80-100)”.
In the case of `CCSCCC(=O)Nc1c(F)ccc(NC(=O)c2cc(NC(=O)[C@H]3[C@H](c4ccc(F)c(C(F)(F)F)c4)C3(Cl)Cl)ccc2Cl)c1F` [F23, 2-Chloro-5-((1R,3R)-2,2-dichloro-3-(4-fluoro-3-(trifluoromethyl)phenyl)cyclopropane-1-carboxamido)-N-(3-(3-(ethylthio)propanamido)-2,4-difluorophenyl)benzamide], the pest or weed control at 50 µg/cm2 in data set [1] and in data set [2] was 50 to 100% each time. The “YFM (rating)” value in data set [3] is listed as “A (80-100)”.
For the compound `CSCCC(=O)Nc1c(F)ccc(NC(=O)c2cc(NC(=O)[C@H]3[C@H](c4ccc(F)c(C(F)(F)F)c4)C3(Cl)Cl)ccc2Cl)c1F` [F24, 2-Chloro-5-((1R,3R)-2,2-dichloro-3-(4-fluoro-3-(trifluoromethyl)phenyl)cyclopropane-1-carboxamido)-N-(2,4-difluoro-3-(3-(methylthio)propanamido)phenyl)benzamide], the pest or weed control at 50 µg/cm2 in data set [1] and in data set [2] was 50 to 100% each time. The “YFM (rating)” value in data set [3] is listed as “A (80-100)”.
Regarding `CSCCCC(=O)Nc1c(F)ccc(NC(=O)c2cc(NC(=O)[C@H]3[C@H](c4ccc(F)c(C(F)(F)F)c4)C3(Cl)Cl)ccc2Cl)c1F` [F25, 2-Chloro-5-((1R,3R)-2,2-dichloro-3-(4-fluoro-3-(trifluoromethyl)phenyl)cyclopropane-1-carboxamido)-N-(2,4-difluoro-3-(4-(methylthio)butanamido)phenyl)benzamide], the pest or weed control at 50 µg/cm2 in data set [1] and in data set [2] was 50 to 100% throughout. Also, the “YFM (rating)” value in data set [3] is reported as “A (80-100)”.
Consider `O=C(C[S+]([O-])CC(F)(F)F)Nc1c(F)ccc(NC(=O)c2cc(NC(=O)[C@H]3[C@H](c4ccc(F)c(C(F)(F)F)c4)C3(Cl)Cl)ccc2Cl)c1F` (stereo partly drawn) [F32, 2-Chloro-5-((1R,3R)-2,2-dichloro-3-(4-fluoro-3-(trifluoromethyl)phenyl)cyclopropane-1-carboxamido)-N-(2,4-difluoro-3-(2-((2,2,2-trifluoroethyl)sulfinyl)acetamido)phenyl)benzamide], for which the pest or weed control at 50 µg/cm2 in data set [1] and in data set [2] was 50 to 100% in each case. Further, the “YFM (rating)” value in data set [3] was “A (80-100)”.
For `O=C(CCS(=O)(=O)C(F)(F)F)Nc1c(F)ccc(NC(=O)c2cc(NC(=O)[C@H]3[C@H](c4ccc(F)c(C(F)(F)F)c4)C3(Cl)Cl)ccc2Cl)c1F` [F46, 2-Chloro-5-((1R,3R)-2,2-dichloro-3-(4-fluoro-3-(trifluoromethyl)phenyl)cyclopropane-1-carboxamido)-N-(2,4-difluoro-3-(3-((trifluoromethyl)sulfonyl)propanamido)phenyl)benzamide], the pest or weed control at 50 µg/cm2 in data set [1] and in data set [2] was 50 to 100% in each case. Moreover, the “YFM (rating)” value in data set [3] is on record as “A (80-100)”.

The values above are taken from patent US20210015098A1, “MOLECULES HAVING PESTICIDAL UTILITY, AND INTERMEDIATES, COMPOSITIONS, AND PROCESSES, RELATED THERETO” (DOW AGROSCIENCES LLC, priority 2018, published 2021).
